Measured values from patent US12281122B1, “PI3K inhibitors” (Cogent Biosciences, Inc., priority 2023, dated 2025).

Experiments:
PI3Kα = PI3Kα (Homo sapiens, UniProt P42336); experiment: PI3Kα enzyme assay (Transcreener ADP2 TR-FRET Red Assay); type: biochemical; conditions: purified recombinant full-length protein; 2 hours pre-incubation with compound; read-out: PI3Kα WT IC50
Description: (§1) Activity against PI3Kα and PI3Kα H1047R enzymes were determined in biochemical assays using purified recombinant full-length proteins with the Transcreener ADP^2 TR-FRET Red Assay from Bellbrook Labs. (Catalogue number 3011-10K). Test compounds were dissolved in DMSO and were tested in 11 point 1:3 serial dilutions, typical final concentration range from 50,000 nM to 0.85 nM. Enzymes were pre-incubated with compounds for 2 hours at room temperature prior to initiating the reactions. Assays were initiated with a 2×ATP/PI(4,5)P2 diC8 substrate mixture. After 60 minutes at room temperature, the reactions were quenched with detection reagent and incubated for an additional 60 minutes at room temperature. The plates were read using a multimode reader and the emission ratio of 665 nm to 615 nm was determined. This ratio was converted to percent of control (POC). [1-(high control-sample signal)/(high control-low control)]*100. Wells without compound were used to determine high control values and wells without enzyme were used to determine low control values. The POC values were fit using a four-parameter logistic model and the value where the fit curve was equal to 50 POC was reported as the IC50 using the Signals VitroVivo software package (PerkinElmer). Final assay conditions were: 40 mM HEPES pH 7.5, 20 mM NaCl, 25 mM MgCl2, 0.01% Triton X-100. The enzyme source, catalogue number, final enzyme concentration, and final ATP and PI(4,5)P2 diC8 concentration can be found in the table E10 below.

PI3Kα H1047R = PI3Kα H1047R (Homo sapiens, UniProt P42336, H1047R); experiment: PI3Kα H1047R enzyme assay (Transcreener ADP2 TR-FRET Red Assay); type: biochemical; conditions: purified recombinant full-length protein; 2 hours pre-incubation with compound
Description: as §1

[1] = system: SKBR3 (PI3Kα-Wild Type) cell line; experiment: HTRF phospho-AKT(S473) cell assay in SKBR3 cells; type: cell-based, human; conditions: Homo sapiens, SK-BR-3; SKBR3 (PI3Kα-Wild Type) cells, HTRF phospho-AKT(S473), 2 hours compound incubation, PDGF-BB stimulated
How it was run: (§2)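 pAKT(S473) in lysates read by HTRF after a 2 h, 37 °C compound exposure (12-point 1:3 series, max 0.5% DMSO). SKBR3 (wild type, top 10 μM) received 70 ng/ml PDGF-BB during the final 15 min; T47D (H1047R, top 5 μM) was unstimulated. IC50 values derived from the dose-response.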

[2] = system: T47D (PI3Kα-H1047R) cell line; experiment: HTRF phospho-AKT(S473) cell assay in T47D cells; type: cell-based, human; conditions: Homo sapiens; T47D (PI3Kα-H1047R) cells, HTRF phospho-AKT(S473), 2 hours compound incubation
How it was run: as §2

Sequence of PI3Kα H1047R (P42336 whole entry H1047R): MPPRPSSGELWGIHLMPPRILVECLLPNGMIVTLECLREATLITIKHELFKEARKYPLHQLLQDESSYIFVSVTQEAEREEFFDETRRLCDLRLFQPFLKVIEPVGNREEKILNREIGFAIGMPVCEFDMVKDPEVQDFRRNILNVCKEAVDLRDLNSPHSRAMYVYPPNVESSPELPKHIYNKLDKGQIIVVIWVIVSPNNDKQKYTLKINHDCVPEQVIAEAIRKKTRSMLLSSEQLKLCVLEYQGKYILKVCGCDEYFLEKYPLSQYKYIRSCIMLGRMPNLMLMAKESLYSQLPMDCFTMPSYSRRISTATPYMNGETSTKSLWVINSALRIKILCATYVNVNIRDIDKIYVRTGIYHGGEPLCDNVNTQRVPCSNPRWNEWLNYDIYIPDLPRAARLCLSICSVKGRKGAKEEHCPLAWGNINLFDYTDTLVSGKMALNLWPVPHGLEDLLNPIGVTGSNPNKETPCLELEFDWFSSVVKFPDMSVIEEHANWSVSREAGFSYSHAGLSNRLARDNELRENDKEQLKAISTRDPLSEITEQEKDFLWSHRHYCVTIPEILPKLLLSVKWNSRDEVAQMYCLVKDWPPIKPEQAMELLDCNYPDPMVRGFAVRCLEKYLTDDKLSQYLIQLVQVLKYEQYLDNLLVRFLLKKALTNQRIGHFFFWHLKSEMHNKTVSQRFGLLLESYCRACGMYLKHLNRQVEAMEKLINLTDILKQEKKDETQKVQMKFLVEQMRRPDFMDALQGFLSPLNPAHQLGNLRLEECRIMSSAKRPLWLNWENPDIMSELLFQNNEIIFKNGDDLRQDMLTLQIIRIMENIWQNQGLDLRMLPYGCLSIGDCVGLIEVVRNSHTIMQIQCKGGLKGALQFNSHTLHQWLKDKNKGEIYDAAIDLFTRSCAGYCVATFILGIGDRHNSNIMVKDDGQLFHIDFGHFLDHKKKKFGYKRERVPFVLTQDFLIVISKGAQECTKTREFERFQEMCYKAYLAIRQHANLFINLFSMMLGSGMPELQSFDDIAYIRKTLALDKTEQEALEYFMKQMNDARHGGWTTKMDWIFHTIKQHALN
Sequence of PI3Kα H1047R (P27986 2-724 partner): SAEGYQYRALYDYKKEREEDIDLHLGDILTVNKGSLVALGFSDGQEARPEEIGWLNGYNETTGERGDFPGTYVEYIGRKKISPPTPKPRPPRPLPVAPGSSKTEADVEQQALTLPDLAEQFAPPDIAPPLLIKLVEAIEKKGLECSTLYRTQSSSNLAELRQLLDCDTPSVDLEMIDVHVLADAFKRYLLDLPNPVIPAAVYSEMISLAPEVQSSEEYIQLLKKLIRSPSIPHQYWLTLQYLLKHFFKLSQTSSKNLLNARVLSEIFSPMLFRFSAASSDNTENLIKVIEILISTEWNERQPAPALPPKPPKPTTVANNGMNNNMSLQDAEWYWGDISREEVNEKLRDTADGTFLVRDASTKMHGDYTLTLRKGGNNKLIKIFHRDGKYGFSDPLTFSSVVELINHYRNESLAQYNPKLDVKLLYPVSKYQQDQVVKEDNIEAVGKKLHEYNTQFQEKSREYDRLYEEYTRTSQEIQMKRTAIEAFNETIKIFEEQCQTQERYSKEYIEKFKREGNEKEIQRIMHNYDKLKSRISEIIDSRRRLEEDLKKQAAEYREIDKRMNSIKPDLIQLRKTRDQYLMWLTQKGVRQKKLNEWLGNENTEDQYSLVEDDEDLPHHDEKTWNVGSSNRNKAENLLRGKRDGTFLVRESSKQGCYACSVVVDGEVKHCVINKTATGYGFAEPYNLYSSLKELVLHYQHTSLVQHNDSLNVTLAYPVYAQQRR
Sequence of PI3Kα (P42336 whole entry): as the sequence (P42336 whole entry H1047R) above, with R1047H counted along it
Sequence of PI3Kα (P27986 2-724 partner): as the sequence (P27986 2-724 partner) above

SMILES	IC50 (PI3Kα) [nM]	IC50 (PI3Kα H1047R) [nM]	IC50 [1] [nM]	IC50 [2] [nM]
C[C@@H](Nc1ccc(Cl)nc1C(=O)NS(C)(=O)=O)c1cccc2c(=O)n(C)c(N3CCC(F)(F)CC3)nc12 [Compound 39, (R)-6-chloro-3-((1-(2-(4,4-difluoropiperidin-1-yl)-3-methyl-4-oxo-3,4-dihydroquinazolin-8-yl)ethyl)amino)-N-(methylsulfonyl) picolinamide]	≥ 1000	500 to 1000	1000 to 5000	< 250
C[C@@H](Nc1ccc(Cl)nc1C(=O)NS(C)(=O)=O)c1cc(F)cc2c(=O)n(C)c(N3CC4CC4C3)nc12 (stereo partly drawn) [Compound 29, 3-(((1R)-1-(2-(3-azabicyclo[3.1.0]hexan-3-yl)-6-fluoro-3-methyl-4-oxo-3,4-dihydroquinazolin-8-yl)ethyl)amino)-6-chloro-N-(methylsulfonyl) picolinamide]	≥ 1000	250 to 500	1000 to 5000	250 to 500
Cc1cc([C@@H](C)Nc2ccc(Cl)nc2C(=O)NS(C)(=O)=O)c2nc(-c3cncc(F)c3)n(C)c(=O)c2c1 [Compound 83, (R)-6-chloro-3-((1-(2-(5-fluoropyridin-3-yl)-3,6-dimethyl-4-oxo-3,4-dihydroquinazolin-8-yl)ethyl)amino)-N-(methylsulfonyl) picolinamide]	≥ 1000	≥ 1000	1000 to 5000	250 to 500
C[C@@H](Nc1ccc[nH]c1=O)c1cc(F)cc2c(=O)n(C)c(N3Cc4cnn(C)c4C3)nc12 [Compound 98, (R)-6-fluoro-3-methyl-2-(1-methyl-4,6-dihydropyrrolo[3,4-c]pyrazol-5(1H)-yl)-8-(1-((2-oxo-1,2-dihydropyridin-3-yl)amino)ethyl)quinazolin-4(3H)-one]	≥ 1000	≥ 1000	≥ 5000	1000 to 5000
COc1nc(Cl)ccc1N[C@H](C)c1cc(C)cc2c(=O)n(C)c(N3Cc4ccc(F)cc4C3)nc12 [Compound 96, (R)-8-(1-((6-chloro-2-methoxypyridin-3-yl)amino)ethyl)-2-(5-fluoroisoindolin-2-yl)-3,6-dimethylquinazolin-4(3H)-one]	≥ 1000	≥ 1000	≥ 5000	1000 to 5000
CCn1cc2c(n1)CN(c1nc3c([C@@H](C)Nc4ccc(Cl)nc4C(=O)NS(C)(=O)=O)cc(C)cc3c(=O)n1C)C2 [Compound 44, (R)-6-chloro-3-((1-(2-(2-ethyl-2,6-dihydropyrrolo[3,4-c]pyrazol-5(4H)-yl)-3,6-dimethyl-4-oxo-3,4-dihydroquinazolin-8-yl)ethyl)amino)-N-(methylsulfonyl) picolinamide]	≥ 1000	100 to 250	1000 to 5000	< 250
Cc1cc([C@@H](C)Nc2ccc(Cl)nc2C(=O)NS(C)(=O)=O)c2nc(N(C)CC3CC3)n(C)c(=O)c2c1 [Compound 14, (R)-6-chloro-3-((1-(2-((cyclopropylmethyl) (methyl)amino)-3,6-dimethyl-4-oxo-3,4-dihydroquinazolin-8-yl)ethyl)amino)-N-(methylsulfonyl) picolinamide]	≥ 1000	250 to 500	1000 to 5000	250 to 500
Cc1cc([C@@H](C)Nc2cn(C)nc2C(N)=O)c2nc(N3Cc4ccc(F)cc4C3)n(C)c(=O)c2c1 (single isomer, unassigned) [Compound 108]	≥ 1000	≥ 1000	≥ 5000	1000 to 5000
Cc1cc([C@@H](C)Nc2ccc(Cl)nc2C(=O)NS(C)(=O)=O)c2nc(-c3cccc(F)c3F)n(C)c(=O)c2c1 [Compound 82, (R)-6-chloro-3-((1-(2-(2,3-difluorophenyl)-3,6-dimethyl-4-oxo-3,4-dihydroquinazolin-8-yl)ethyl)amino)-N-(methylsulfonyl)picolinamide]	≥ 1000	≥ 1000	1000 to 5000	500 to 1000
Cc1cc([C@@H](C)Nc2ccc(F)cc2C(=O)NS(C)(=O)=O)c2nc(N3Cc4ccc(F)cc4C3)n(C)c(=O)c2c1 [Compound 63, (R)-5-fluoro-2-((1-(2-(5-fluoro-isoindolin-2-yl)-3,6-dimethyl-4-oxo-3,4-dihydroquinazolin-8-yl)ethyl)amino)-N-(methylsulfonyl) benzamide]	≥ 1000	≥ 1000	1000 to 5000	1000 to 5000
Cc1cc([C@@H](C)Nc2ccc(Cl)nc2C(=O)NS(C)(=O)=O)c2nc(N3Cc4cnn(C(C)C)c4C3)n(C)c(=O)c2c1 [Compound 49, (R)-6-chloro-3-((1-(2-(1-isopropyl-4,6-dihydropyrrolo[3,4-c]pyrazol-5(1H)-yl)-3,6-dimethyl-4-oxo-3,4-dihydroquinazolin-8-yl)ethyl)amino)-N-(methylsulfonyl) picolinamide]	≥ 1000	100 to 250	1000 to 5000	< 250
Cc1cc([C@@H](C)Nc2ccc(Cl)nc2S(=O)(=O)NC(=O)C2CC2)c2nc(N3Cc4ccc(F)cc4C3)n(C)c(=O)c2c1 [Compound 79, (R)-N-((6-chloro-3-((1-(2-(5-fluoroisoindolin-2-yl)-3,6-dimethyl-4-oxo-3,4-dihydroquinazolin-8-yl)ethyl)amino)pyridin-2-yl)sulfonyl)cyclopropane-carboxamide]	≥ 1000	100 to 250	≥ 5000	250 to 500
CC(=O)NS(=O)(=O)c1nc(Cl)ccc1N[C@H](C)c1cc(C)cc2c(=O)n(C)c(N3Cc4ccc(F)cc4C3)nc12 [Compound 74, (R)—N-((6-chloro-3-((1-(2-(5-fluoroisoindolin-2-yl)-3,6-dimethyl-4-oxo-3,4-dihydroquinazolin-8-yl)ethyl)amino)pyridin-2-yl)sulfonyl)acetamide]	≥ 1000	100 to 250	≥ 5000	250 to 500
Cc1cc([C@@H](C)Nc2ccc(Cl)nc2C(=O)NS(C)(=O)=O)c2nc(NC3CCCC3)n(C)c(=O)c2c1 [Compound 11, (R)-6-chloro-3-((1-(2-(cyclopentylamino)-3,6-dimethyl-4-oxo-3,4-dihydroquinazolin-8-yl)ethyl)amino)-N-(methylsulfonyl) picolinamide]	≥ 1000	250 to 500	≥ 5000	250 to 500
CCC(=O)NS(=O)(=O)c1nc(Cl)ccc1N[C@H](C)c1cc(C)cc2c(=O)n(C)c(N3Cc4ccc(F)cc4C3)nc12 [Compound 81, (R)-N-((6-chloro-3-((1-(2-(5-fluoroisoindolin-2-yl)-3,6-dimethyl-4-oxo-3,4-dihydroquinazolin-8-yl)ethyl)amino)pyridin-2-yl)sulfonyl)propionamide]	≥ 1000	< 100	≥ 5000	250 to 500
Cc1ccc(N[C@H](C)c2cccc3c(=O)n(C)c(N4Cc5ccc(F)cc5C4)nc23)c(C(=O)NS(C)(=O)=O)n1 [Compound 2, (R)-3-((1-(2-(5-fluoroisoindolin-2-yl)-3-methyl-4-oxo-3,4-dihydroquinazolin-8-yl)ethyl)amino)-6-methyl-N-(methylsulfonyl) picolinamide]	≥ 1000	≥ 1000	≥ 5000	1000 to 5000
Cc1cc([C@@H](C)Nc2cccnc2C(=O)NS(C)(=O)=O)c2nc(N3Cc4ccc(F)cc4C3)n(C)c(=O)c2c1 [Compound 58, (R)-3-((1-(2-(5-fluoroisoindolin-2-yl)-3,6-dimethyl-4-oxo-3,4-dihydroquinazolin-8-yl)ethyl)amino)-N-(methylsulfonyl) picolinamide]	≥ 1000	≥ 1000	1000 to 5000	250 to 500
Cc1cc([C@@H](C)Nc2ccc(Cl)nc2C(=O)NS(C)(=O)=O)c2nc(N3Cc4cn(CC(F)(F)F)nc4C3)n(C)c(=O)c2c1 [Compound 54, (R)-6-chloro-3-((1-(3,6-dimethyl-4-oxo-2-(2-(2,2,2-trifluoroethyl)-2,6-dihydropyrrolo[3,4-c]pyrazol-5(4H)-yl)-3,4-dihydroquinazolin-8-yl)ethyl)amino)-N-(methylsulfonyl) picolinamide]	≥ 1000	100 to 250	1000 to 5000	< 250
Cc1cc([C@@H](C)Nc2ccccc2S(=O)(=O)NC(=O)C(F)F)c2nc(N3Cc4ccc(F)cc4C3)n(C)c(=O)c2c1 [Compound 75, (R)-2,2-difluoro-N-((2-((1-(2-(5-fluoroisoindolin-2-yl)-3,6-dimethyl-4-oxo-3,4-dihydroquinazolin-8-yl)ethyl)amino)phenyl)sulfonyl)acetamide]	≥ 1000	≥ 1000	≥ 5000	1000 to 5000
